According to the NIST ThermoML archive (doi:10.1016/j.tca.2005.06.011):
Numbers after ± are expanded uncertainties.

Assay: excess molar enthalpy (molar enthalpy of mixing); xn = mol fraction of the nth substance listed
Conditions: 298.15 K, 101 kPa, Liquid, Flow calorimetry

excess molar enthalpy (x2 = 0.2499): -0.00906 ± 0.000263 kcal/mol | excess molar enthalpy (x2 = 0.5): -0.0108 ± 0.000263 kcal/mol | excess molar enthalpy (x2 = 0.75): -0.00837 ± 0.000239 kcal/mol
SMILES: CC(C)O [propan-2-ol] + CCCO
